Source: PubChem BioAssay AID248 (DTP/NCI, 2004)
Where “and” joins values, the source holds several entries; their conditions need not be identical. Identical values can stand only once. Inconclusive results and toxic doses are left out. No stated cut-off is given here; in the data, active means T/C of 150% or more; inactive means T/C below 125%.

Test system: L1210 leukemia ip in BDF1 mice, survival T/C
Experiment: NCI In Vivo Anticancer Drug Screen. Data for tumor model L1210 Leukemia (intraperitoneal) in B6D2F1 (BDF1) mice
Conditions: endpoint: mean survival time, higher = longer survival
Summary of the method: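 Transplantable tumor model; survival measured in treated vs vehicle control mice. Value = treated/control.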

[1] = dose: 100.0 mg/kg/injection, schedule: Q04DX002 (ip), vehicle: saline
[2] = dose: 50.0 mg/kg/injection, schedule: Q01DX001 (ip), vehicle: saline
[3] = dose: 100.0 mg/kg/injection, schedule: Q04DX003 (ip), vehicle: saline
[4] = dose: 200.0 mg/kg/injection, schedule: Q04DX003 (ip), vehicle: saline
[5] = dose: 100.0 mg/kg/injection, schedule: Q01DX009 (ip), vehicle: Klucel (hydroxypropylcellulose) (HPC)
[6] = dose: 200.0 mg/kg/injection, schedule: Q01DX009 (ip), vehicle: Klucel (hydroxypropylcellulose) (HPC)
[7] = dose: 400.0 mg/kg/injection, schedule: Q01DX009 (ip), vehicle: Klucel (hydroxypropylcellulose) (HPC)
[8] = dose: 100.0 mg/kg/injection, schedule: Q01DX001 (ip), vehicle: saline
[9] = dose: 200.0 mg/kg/injection, schedule: Q01DX001 (ip), vehicle: saline
[10] = dose: 400.0 mg/kg/injection, schedule: Q01DX001 (ip), vehicle: saline
[11] = dose: 400.0 mg/kg/injection, schedule: Q04DX002 (ip), vehicle: saline
[12] = dose: 100.0 mg/kg/injection, schedule: Q04DX003 (ip), vehicle: Klucel (hydroxypropylcellulose) (HPC)
[13] = dose: 200.0 mg/kg/injection, schedule: Q04DX003 (ip), vehicle: Klucel (hydroxypropylcellulose) (HPC)
[14] = dose: 400.0 mg/kg/injection, schedule: Q04DX003 (ip), vehicle: Klucel (hydroxypropylcellulose) (HPC)
[15] = dose: 50.0 mg/kg/injection, schedule: Q04DX003 (ip), vehicle: Klucel (hydroxypropylcellulose) (HPC)
[16] = dose: 400.0 mg/kg/injection, schedule: Q04DX003 (ip), vehicle: saline
[17] = dose: 100.0 mg/kg/injection, schedule: Q01DX009 (ip), vehicle: saline
[18] = dose: 200.0 mg/kg/injection, schedule: Q01DX009 (ip), vehicle: saline
[19] = dose: 400.0 mg/kg/injection, schedule: Q01DX009 (ip), vehicle: saline

Measured: T/C

COc1ccc(CCc2ccc(OC)cc2)cc1
inactive: dose: 25.0 mg/kg/injection, schedule: Q04DX002 (ip), vehicle: saline 106 % of control | dose: 50.0 mg/kg/injection, schedule: Q04DX002 (ip), vehicle: saline 117 % of control | [1] 109 % of control

O=N[O-].O=N[O-].[Co].[NH-]CCN(CC[NH-])CC[NH-]
inactive: [2] 108 % of control

Nc1cc(Cl)ccc1N1CCCC1
inactive: [3] 94 % of control | [4] 90 % of control

O=C(NCCNC(=O)C(Cl)(Cl)Cl)C(Cl)(Cl)Cl
inactive: [5] 89 % of control | [6] 91 % of control | [7] 87 % of control

CCOc1cc(/C=N\Nc2nnc(C)n2N)c(C)cc1N(CCCl)CCCl
inactive: dose: 10.5 mg/kg/injection, schedule: Q01DX015 (ip), vehicle: carboxymethylcellulose (CMC) 119 % of control | dose: 18.0 mg/kg/injection, schedule: Q01DX015 (ip), vehicle: carboxymethylcellulose (CMC) 109 % of control | dose: 44.0 mg/kg/injection, schedule: Q01DX001 (ip), vehicle: carboxymethylcellulose (CMC) 110 % of control | dose: 50.0 mg/kg/injection, schedule: Q01DX001 (ip), vehicle: carboxymethylcellulose (CMC) 120 % of control | dose: 67.0 mg/kg/injection, schedule: Q01DX001 (ip), vehicle: carboxymethylcellulose (CMC) 110 % of control and 116 % of control | dose: 100.0 mg/kg/injection, schedule: Q01DX001 (ip), vehicle: carboxymethylcellulose (CMC) 111 % of control and 124 % of control | dose: 150.0 mg/kg/injection, schedule: Q01DX001 (ip), vehicle: carboxymethylcellulose (CMC) 105 % of control and 90 % of control | dose: 200.0 mg/kg/injection, schedule: Q01DX001 (ip), vehicle: carboxymethylcellulose (CMC) 105 % of control

O=C1C(=O)c2ccc(Br)cc2C(O)=C1C(c1ccccc1)c1ccccc1
inactive: [8] 100 % of control | [9] 106 % of control | [10] 96 % of control

COc1ccc(NCCC(O)CN2CCOCC2)cc1 (centres undefined)
inactive: [2] 100 % of control | [8] 94 % of control | [9] 119 % of control

C[C@H]1C[C@@H]2[C@H]([C@@H](O)C[C@@]3(C)[C@H]2CC[C@]3(O)C(=O)CF)[C@@]2(C)C=CC(=O)C=C12
inactive: dose: 62.0 mg/kg/injection, schedule: Q01DX015 (sc), vehicle: steriod suspending solution 97 % of control | dose: 100.0 mg/kg/injection, schedule: Q04DX003 (sc), vehicle: Klucel (hydroxypropylcellulose) (HPC) 101 % of control | dose: 125.0 mg/kg/injection, schedule: Q01DX015 (sc), vehicle: steriod suspending solution 94 % of control | dose: 200.0 mg/kg/injection, schedule: Q04DX003 (sc), vehicle: Klucel (hydroxypropylcellulose) (HPC) 102 % of control | dose: 250.0 mg/kg/injection, schedule: Q01DX015 (sc), vehicle: steriod suspending solution 102 % of control | dose: 400.0 mg/kg/injection, schedule: Q04DX003 (sc), vehicle: Klucel (hydroxypropylcellulose) (HPC) 115 % of control | dose: 500.0 mg/kg/injection, schedule: Q01DX015 (sc), vehicle: steriod suspending solution 102 % of control

Brc1ccc2oc3ccccc3c2c1
inactive: dose: 50.0 mg/kg/injection, schedule: Q04DX002 (ip), vehicle: Klucel (hydroxypropylcellulose) (HPC) 92 % of control | dose: 100.0 mg/kg/injection, schedule: Q04DX002 (ip), vehicle: Klucel (hydroxypropylcellulose) (HPC) 93 % of control | [1] 104 % of control | dose: 200.0 mg/kg/injection, schedule: Q04DX002 (ip), vehicle: Klucel (hydroxypropylcellulose) (HPC) 96 % of control | dose: 400.0 mg/kg/injection, schedule: Q04DX002 (ip), vehicle: Klucel (hydroxypropylcellulose) (HPC) 100 % of control | [11] 93 % of control

CC(=O)Oc1cc(C)c(OC(C)=O)c2ccccc12
inactive: [5] 96 % of control | [12] 96 % of control | [6] 93 % of control | [13] 103 % of control | [14] 96 % of control

COc1cccc2c(=O)c(C(=O)O)c[nH]c12
inactive: dose: 50.0 mg/kg/injection, schedule: Q01DX009 (ip), vehicle: Klucel (hydroxypropylcellulose) (HPC) 101 % of control | [15] 94 % of control | [5] 106 % of control | [1] 96 % of control | [12] 91 % of control | [6] 107 % of control | dose: 200.0 mg/kg/injection, schedule: Q04DX002 (ip), vehicle: saline 96 % of control | [13] 94 % of control | [11] 100 % of control

CN1CCN(C(=O)c2ccccc2C(=O)O)CC1
inactive: [8] 101 % of control | [9] 96 % of control

O=S(=O)(O)c1ccc(Nc2ccccc2)cc1
inactive: [5] 103 % of control and 100 % of control | [12] 107 % of control and 103 % of control | [6] 103 % of control and 102 % of control | [13] 96 % of control and 103 % of control | [7] 108 % of control and 102 % of control | [14] 102 % of control and 101 % of control

Fc1ccc(/C=N\N=C(N/N=C/c2ccc(F)cc2)N/N=C/c2ccc(F)cc2)cc1
inactive: dose: 12.5 mg/kg/injection, schedule: Q04DX003 (ip), vehicle: saline with Tween-80 101 % of control | dose: 15.0 mg/kg/injection, schedule: Q01DX Z (ip), vehicle: carboxymethylcellulose (CMC) 97 % of control | dose: 25.0 mg/kg/injection, schedule: Q04DX003 (ip), vehicle: saline with Tween-80 101 % of control | dose: 30.0 mg/kg/injection, schedule: Q01DX Z (ip), vehicle: carboxymethylcellulose (CMC) 97 % of control | dose: 30.0 mg/kg/injection, schedule: Q01DX Z (oral), vehicle: carboxymethylcellulose (CMC) 100 % of control | dose: 50.0 mg/kg/injection, schedule: Q04DX003 (ip), vehicle: saline with Tween-80 104 % of control | dose: 60.0 mg/kg/injection, schedule: Q01DX Z (ip), vehicle: carboxymethylcellulose (CMC) 101 % of control | dose: 60.0 mg/kg/injection, schedule: Q01DX Z (oral), vehicle: carboxymethylcellulose (CMC) 93 % of control and 100 % of control | [12] 90 % of control | dose: 120.0 mg/kg/injection, schedule: Q01DX Z (ip), vehicle: carboxymethylcellulose (CMC) 89 % of control | dose: 120.0 mg/kg/injection, schedule: Q01DX Z (oral), vehicle: carboxymethylcellulose (CMC) 98 % of control and 100 % of control | [13] 100 % of control | dose: 240.0 mg/kg/injection, schedule: Q01DX Z (oral), vehicle: carboxymethylcellulose (CMC) 102 % of control and 105 % of control | [14] 87 % of control

N#C/C(=C/c1ccncc1)C(N)=O
inactive: dose: 100.0 mg/kg/injection, schedule: Q04DX003 (ip), vehicle: saline with Tween-80 98 % of control | dose: 200.0 mg/kg/injection, schedule: Q04DX003 (ip), vehicle: saline with Tween-80 94 % of control | dose: 400.0 mg/kg/injection, schedule: Q04DX003 (ip), vehicle: saline with Tween-80 99 % of control

O=C(Nc1ccc2ccccc2c1)c1ccc(Cl)c(Cl)c1
inactive: [5] 95 % of control | [6] 103 % of control | [7] 103 % of control

O=c1nccc[nH]1
inactive: [3] 97 % of control | [4] 97 % of control

CN/N=C/c1ccc(C(=O)NC(C)C)cc1
inactive: dose: 25.0 mg/kg/injection, schedule: Q04DX003 (ip), vehicle: Klucel (hydroxypropylcellulose) (HPC) 98 % of control | [15] 102 % of control | [12] 102 % of control | [13] 109 % of control

CN(C)CCCN1CC2CCCC1O2 (centres undefined)
inactive: [2] 90 % of control | [8] 102 % of control | [9] 100 % of control | [10] 94 % of control

NC1CCC(C(=O)O)NC1 (centres undefined)
inactive: [3] 104 % of control | [4] 107 % of control | [16] 109 % of control

OCCN=C1c2cc(Cl)ccc2-c2c(Cl)cc(Cl)cc21
inactive: [12] 103 % of control | [13] 97 % of control | [14] 87 % of control

CCOC(=O)/C(C)=N/Nc1cc(Cl)ccc1O
inactive: [8] 95 % of control | [9] 94 % of control | [10] 106 % of control

CSc1cccc(NC(C)=O)c1
inactive: [17] 97 % of control | [3] 93 % of control | [18] 113 % of control | [4] 97 % of control | [19] 104 % of control | [16] 101 % of control

COc1cc(Cl)ccc1NC(=O)OCCc1ccccn1
inactive: [17] 97 % of control | [18] 100 % of control | [19] 97 % of control

CCN(C(=O)c1ccccc1Cl)C(c1ccco1)P(=O)(c1ccccc1)c1ccccc1 (centres undefined)
inactive: dose: 100.0 mg/kg/injection, schedule: Q04DX002 (ip), vehicle: saline with Tween-80 93 % of control | dose: 200.0 mg/kg/injection, schedule: Q04DX002 (ip), vehicle: saline with Tween-80 86 % of control | dose: 400.0 mg/kg/injection, schedule: Q04DX002 (ip), vehicle: saline with Tween-80 117 % of control
